Source: article PMC12274739, “Differential substrate degradation by super-degron: EGFP in wild-type mouse cells, PD-1 requires CRBN humanization” (iScience, 2025)
Several values for one entry are separate records, joined by “and”; a condition that tells them apart may be missing. Equal entries are not always repeated.

How the values were obtained:
[1] = system: mouse PD-1-mCherry-IKZF minimal tag; test: Degradation of IKZF minimal-tagged mouse PD-1-mCherry in Jurkat cells; format: cell-based, human; settings: 24 h
Description: To identify a tag that could efficiently knock down mouse PD-1, we connected various degron tags to the C-terminus of PD-1, including IKZF1/3, Sall4, ZFP91, and SD, and generated Jurkat human T cell lymphoma cell lines that stably expressed the mouse PD-1-degron tag (Figure 1A). As reported previously,[21]^,[22]^,[23] in mouse CRBN, the 391st amino acid corresponding to Val-388 of human CRBN is Ile, which causes a protrusion when a neo substrate binds to CRBN, resulting in a weaker affinity than in human CRBN (Figure 1B). Therefore, a human cell line was used because it was thought that mouse CRBN would not degrade SD by thalidomide analogs. […] We also analyzed the degradation of total proteins using mCherry.
Figure 1 Degradation of various degron-tagged mouse PD-1 in human Jurkat cell line (A) The protein construction of PD-1 tagged with mCherry and a degron tag. […] Valine 388 in human CRBN (red on the left) is replaced by isoleucine in mouse CRBN (gray on the right, over the red valine), causing a conflict between CRBN and IKZF1/3 (yellow ellipse). The stretch of the methyl group in isoleucine causing the conflict is indicated by a yellow arrow. (C) The amount of PD-1 and mCherry fused to IKZF minimal (blue, n = 1), IKZF full length (light blue, n = 1), Sall4 (orange, n = 1) or super degron (SD; red, n = 3) tags in Jurkat human T cell lymphomas 24 h after the addition of pomalidomide (POM) measured by flow cytometry. […] (C and D) The amount was standardized with the sample to which no reagent was added as 1. Concentrations of reagents were 0 (−), 5, 10, and 20 μM for IKZF minimal, IKZF full-length, and Sall4 tags and 0 (−), 0.5, 5 μM for SD tag. The dots indicate the results of the experiment for each of samples.

[2] = cited from earlier work
[3] = system: MC-38 adenocarcinoma cells; test: Growth of inoculated MC-38 adenocarcinoma cells in mice; format: in vivo, mouse
Procedure: Data are represented as mean ± standard error (SEM). The same experiment was repeated twice to confirm reproducibility. p-values were determined by two-way ANOVA multiple comparisons. ∗∗∗∗p < 0.0001 and ∗p = 0.0267. […] Data are represented as mean ± SEM. The same experiment was repeated twice to confirm reproducibility. p-values were determined by two-way ANOVA multiple comparisons. ∗∗∗∗p < 0.0001, ∗∗∗p = 0.0005, ∗∗p = 0.0067. […] Ratio of PD-1 positive cells and mean fluorescence intensity (MFI) of PD-1 (D), TIM-3 (E), and LAG-3 (F) on CD8^+ and CD4^+ T cells isolated from tumor microenvironments 9 days after the initiation of treatment are shown. Fluorescence intensity of each molecule was measured by flow cytometry, and the geometric MIFs of marker-positive cells were calculated. The data in two experiments were compiled. p-values were determined by the Brown-Forsythe and Welch ANOVA test. Different letters indicate statistically significant differences between groups (p < 0.05). […]
Next, the effects of SD-induced PD-1 reduction were compared with those of anti-PD-1 antibody treatment in vivo. […] CD3^+ T cells infiltrating the MC-38 microenvironment were analyzed on day 9 of treatment before the MC-38 tumor masses had shrunk with treatment and no longer provided sufficient T cells for FACS analyses. […]

Nc1cccc2c1C(=O)N(C1CCC(=O)NC1=O)C2=O (stereo not shown) [POM, pomalidomide]
LogDC50, mCherry (mC) ([1]; mCherry): 0.04896 µM
Bottom, mCherry (mC) ([1]; mCherry, no reagent = 1): 0.8201
LogDC50, PD-1 (FITC) ([1]; surface PD-1): 0.1515 µM
Bottom, PD-1 (FITC) ([1]; surface PD-1, no reagent = 1): 0.53 and 0.5295
blood-brain barrier (BBB) passage [2]: passes through the BBB

O=C1CC[C@H](N2Cc3c(OCc4ccc(CN5CCOCC5)cc4)cccc3C2=O)C(=O)N1 [IBR, iberdomide]
MC-38 cell proliferation ([3]; Pdcd1+/+/CrbnI391V/I391V mice): comparable
growth of MC-38 cells ([3]; Pdcd1SD/SD/CrbnI391V/I391V mice, oral administration of IBR): suppressed proliferation for the entire period
